Tested on: A II receptor
Experiment: Angiotensin II ligand-receptor binding assay (rabbit aortae membrane preparation / bovine adrenal cortex preparation)
Settings: "at least IC50 <50 μM"; not stated which of the two binding assays (rabbit aortae, 125I-Sar1Ile8-A II; bovine adrenal cortex, 3H-A II); read-out: IC50 (50% displacement of specifically bound radiolabelled angiotensin II ligand)
Source text: Angiotensin II (A II) is a powerful arterial vasoconstrictor, and it exerts its action by interacting with specific receptors present on cell membranes. The compounds described in the present invention act as competitive antagonists of A II at the receptors. In order to identify A II antagonists and determine their efficacy in vitro, the following two ligand-receptor binding assays were established.
Receptor binding assay using rabbit aortae membrane preparation
Three frozen rabbit aortae (obtained from Pel-Freeze Biologicals) were suspended in 5 mM Tris-0.25M Sucrose, pH 7.4 buffer (50 ml) homogenized, and then centifuged. The mixture was filtered through a cheesecloth and the supernatant was centrifuged for 30 minutes at 20,000 rpm at 4° C. The pellet thus obtained was resuspended in 30 ml of 50 mM Tris-5 mM MgCl2 buffer containing 0.2% Bovine Serum Albumin and 0.2 mg/ml Bacitration and the suspension was used for 100 assay tubes. Samples tested for screening were done in duplicate. To the membrane preparation (0.25 ml) there was added ^125 I-Sar^1 Ile^8 -angiotensin II [obtained from New England Nuclear] (10 ul; 20,000 cpm) with or without the test sample and the mixture was incubated at 37° C. for 90 minutes. The mixture was then diluted with ice-cold 50 mM Tris-0.9% NaCl, pH 7.4 (4 ml) and filtered through a glass fiber filter (GF/B Whatman 2.4" diameter). The filter was soaked in scintillation cocktail (10 ml) and counted for radioactivity using Packard 2660 Tricarb liquid scintillation counter. The inhibitory concentration (IC50) of potential A II antagonist which gives 50% displacement of the total specifically bound ^125 I-Sar^1 Ile^8 -angiotensin II was presented as a measure of the efficacy of such compounds as A II antagonists.
Receptor assay using Bovine adrenal cortex preparation
Bovine adrenal cortex was selected as the source of A II receptor. Weighed tissue (0.1 g is needed for 100 assay tubes) was suspended in Tris.HCl (50 mM), pH 7.7 buffer and homogenized. The homogenate was centrifuged at 20,000 rpm for 15 minutes. Supernatant was discarded and pellets resuspended in buffer [Na2 HPO4 (10 mM)-NaCl (120 mM)-disodium EDTA (5 mM) containing phenylmethane sulfonyl fluoride (PMSF)(0.1 mM)]. (For screening of compounds, generally duplicates of tubes are used). To the membrane preparation (0.5 ml) there was added 3H-angiotensin II ([…]) (10 ul) with or without the test sample and the mixture was incubated at 37° C. for 1 hour. The mixture was then diluted with Tris buffer (4 ml) and filtered through a glass fiber filter (GF/B Whatman 2.4" diameter). The filter was soaked in scintillation cocktail (10 ml) and counted for radioactivity using Packard 2660 Tricarb liquid scintillation counter. […]

Row | SMILES | IC50
1 | CCCCc1nc2cscc2n1Cc1ccc(-c2ccccc2C(=O)O)cc1 [Example 1, 4'-[(2-butyl-1H-thieno[3,4-d]imidazol-1-yl)methyl][1,1'-biphenyl]-2-carboxylic acid] | < 50 µM
2 | CCCCc1nc2cc(C(=O)OC)sc2n1Cc1ccc(-c2ccccc2C(=O)O)cc1 [Example 3, 2-butyl-3-[(2'-carboxy{1,1'-biphenyl}-4-yl)methyl]-3H-thieno[2,3-d]imidazole-5-carboxylic acid methyl ester] | < 50 µM
3 | CCCc1nc2c(c(C)nn2C)n1Cc1ccc(-c2ccccc2-c2nnn[nH]2)cc1 [Example 11, 1,4-Dihydro-1,3-dimethyl-5-propyl-4-[(2'-{1H-tetrazol-5-yl}{1,1'-biphenyl}-4-yl)methyl]imidazo[4,5-c]-pyrazole] | < 50 µM
4 | CCCCc1nc2sc(C(=O)OC)cc2n1Cc1ccc(-c2ccccc2-c2nnn[nH]2)cc1 [Example 6, 2-butyl-1-[(2'-{1H-tetrazol-5-yl}{1,1'-biphenyl}-4-yl)methyl]-1H-thieno[2,3-d]imidazole-5-carboxylic acid methyl ester] | < 50 µM

— patent US5389660A, “Substituted imidazo-fused 5-membered ring heterocycles as angiotensin II antagonists” (Merck & Co., Inc., priority 1992, dated 1995)
